Our source for the zone of inhibition, MIC and LC50 values is ChEMBL document CHEMBL2046288, “Cristatumins A-D, new indole alkaloids from the marine-derived endophytic fungus Eurotium cristatum EN-220” (2012).

Holding throughout (type): functional
For experiment [1], the system named is Staphylococcus aureus. Description: Antibacterial activity against Staphylococcus aureus assessed as inhibition zone at 100 ug/disc by well diffusion method. The settings on record: read-out: IZ. Background: In agar diffusion tests the substance spreads into inoculated agar from a disc or well.
The subject of a further experiment is Escherichia coli. Nature of the experiment: Antibacterial activity against Escherichia coli by well diffusion method.
The subject of another experiment is Artemia salina. Nature of the experiment: Insecticidal activity against Artemia salina. As to conditions: read-out: LD50 (the source's name).
Experiment [2] relates to Staphylococcus aureus. Description: Antibacterial activity against Staphylococcus aureus by well diffusion method.

Values after ≈ are worked out from the molar mass of the structure shown.

In the case of `C=CC(C)(C)c1[nH]c2c(CC=C(C)C)cc(CC=C(C)C)cc2c1C[C@@H]1NC(=O)[C@H](C)NC1=O` [ECHINULIN], the zone of inhibition at 100 µg/disc with Staphylococcus aureus [1] turned out to be 8 mm.
For the molecule `C=CC(C)(C)c1[nH]c2ccccc2c1/C=C(\NC(=O)C(N)=O)C(=O)OC` [CRISTATUMIN D], the zone of inhibition at 100 µg/disc in the experiment with Staphylococcus aureus [1] stood at 8 mm.
The MIC is the lowest concentration that inhibits growth of the organism. Turning to `C=CC(C)(C)c1[nH]c2ccccc2c1/C=C1\NC(=O)[C@H](CO)NC1=O` [CRISTATUMIN A], the lowest concentration to inhibit growth in the experiment with Escherichia coli (MIC) was 64 µg/mL (≈ 189 µM).
As for `C=CC(C)(C)c1[nH]c2c(CC=C(C)C)cccc2c1/C=C1\NC(=O)[C@H](C)NC1=O` [VARIECOLORIN G], in the experiment with Artemia salina, the LC50 was determined as 42.6 µg/mL (≈ 109 µM).
In the case of `C=CC(C)(C)c1[nH]c2c(CC=C(C)C)cc(CC=C(C)C)cc2c1C[C@@H]1NC(=O)[C@H](CO)NC1=O` [CRISTATUMIN B], in the experiment with Artemia salina, the LC50 came to 74.4 µg/mL (≈ 156 µM).
For `O=C(N[C@H](CO)[C@H](O)c1ccc([N+](=O)[O-])cc1)C(Cl)Cl` [CHLORAMPHENICOL], the minimal inhibitory concentration (MIC) in the experiment on Escherichia coli and with Staphylococcus aureus [2] was 4 µg/mL (≈ 12.4 µM) in each case.
In the case of `C=CC(C)(C)c1[nH]c2ccc(CC=C(C)C)cc2c1C[C@@H]1NC(=O)[C@H](C)NC1=O` [TARDIOXOPIPERAZINE A], in the experiment on Staphylococcus aureus [2], the MIC turned out to be 8 µg/mL (≈ 20.3 µM).
`C=CC(C)(C)c1[nH]c2ccc(CC=C(C)C)cc2c1/C=C1\NC(=O)[C@H](C)NC1=O` [ISOECHINULIN A]: the LC50 in the experiment with Artemia salina was 16.9 µg/mL (≈ 43.2 µM).
